Assay results from patent US20200276211A1, “COMPOUNDS FOR TREATING NEAR VISION DISORDERS” (VIEWPOINT THERAPEUTICS, INC., priority 2017, published 2020).
Where two headings read alike, the source gives them in different places.

Legend:
[1] = Chemical stability in PBS buffer; assay type: physicochemical
Description: 10 mM compound working solutions were made by adding 10 μL of a 50 mM DMSO stock solution in 40 μL methanol. To make 20 μM compound working solutions, 1 μL of a 10 mM stock solution is added to 499 μL of methanol. Internal standard and quenching solutions were prepared by dissolving 1 mg/mL of terfenadine or tolbutamide in appropriate amounts of DMSO. A quenching solution was prepared containing 25 ng/ml terfenadine plus 50 ng/ml tolbutamide by diluting both stock solutions together in a 1:1 mixture of methanol:acetonitrile. Phosphate buffered saline (PBS) solutions at pH5 and pH7 were prepared by adjusting the pH of stock PBS with concentrated hydrochloric acid. To tubes labeled with a pre-determined time point (0, 5, 15, 30, 60, 120 min) was added 2 μL of 20 μM compound working solution. In each tube, 38 μL of PBS buffer was added to the vial, vortexed, and incubated at 37° C. for the corresponding time. After incubation, 300 μL of the quenching solution containing internal standard was added to the tube and vortexed to mix. The sample was centrifuged at 4000 rpm for 15 min, and 100 μL of supernatant transferred to a 0.65 ml tube for LC/MS analysis. Each compound and timepoint was analyzed by reverse phase HPLC with MS detection performed using a Sciex API 4500 Qtrap.

Plasma stability (human) = assay type: in vitro ADME; settings: 37° C., read-out: Plasma stability (human) t ½
Description: (§1) A 4 mM compound stock solution was prepared by dissolving the appropriate amount of compound in MeOH, then a […] was prepared by adding 2 μL aforementioned 4 mM stock solution in 78 μL DMSO. A 10 mM control stock solution was prepared by dissolving the appropriate amount of tetracaine in DMSO, then a 10 μM control working solution was prepared by diluting the stock in DMSO. A 1 mg/ml terfenadine mixed with 2 mg/mL tolbutamide stock solution was prepared by dissolving an appropriate amount of each in DMSO, then a 1 ng/mL terfenadine mixed with 2 ng/mL tolbutamide internal standard solution was prepared by diluting the stock solution in methanol:acetonitrile (1:1, v/v). Both stock and internal standard solutions were stored at 4° C. Whole blood was centrifuged (obtained from in life group or donors) at 4000 rpm at 4° C. for 15 min to obtain plasma. Plasma was stored at −80° C. for future use. Before use, plasma was pre-warmed at 37° C. in a water bath for 15 min (500 μL per compound or control). After warming, 5 μL compound or control was added into 495 μL plasma, then vortexed to mix. […] The MS detection was performed using a Sciex API 4000 Qtrap and 6500 Plus instrument, and each compound was analyzed by reverse phase HPLC.

[2] = molecular target: T1, recombinant alpha-crystallin core domain (ACD) of cryAB protein (residues 68-153) (Homo sapiens, UniProt P02511); test: Differential scanning fluorimetry (DSF), protein thermal stability change; assay type: binding; settings: SYPRO orange
T1 construct: alpha-crystallin core domain (ACD) of cryAB protein (residues 68-153)
T1 sequence (P02511 68-153): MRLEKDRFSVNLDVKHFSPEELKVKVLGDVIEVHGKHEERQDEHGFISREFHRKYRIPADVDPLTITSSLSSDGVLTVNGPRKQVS
Description: 2.4 μL of 10 mM compound stocks in DMSO were added to the wells of a 96-well plate containing 51.6 μL of 7 μM recombinant alpha-crystallin core domain (ACD) of cryAB protein (residues 68-153) in DSF buffer (50 mM Tris-HCl, 100 mM NaCl, 0.5 mM ZnCl2, 0.5 mM MgCl2, 0.5 mM CaCl2, pH8.0), and subsequently 6 μL 10× SYPRO orange protein gel stain (Invitrogen) was added for a final volume of 60 μL per well. Each well was mixed, and then 10 μL was added in quadruplicates to a MicroAmp Optical 384-well reaction plate with barcode (ThermoFisher). The plate was sealed with a MicroAmp Optical adhesive film (ThermoFisher), centrifuged at 1,000×g for 2 min, and loaded into a QuantStudio 6 Flex real-time PCR system (Applied Biosystems). The DSF assay was performed by heating the plate from 30° C. to 80° C. with 0.5° C. increments per cycle over 100 cycles. Each cycle was held for 90 s after reaching the temperature, and the fluorescent signal (520 nm excitation/558 nm emission) was measured.
The data curve was fitted using a Boltzmann model (GraphPad Prism Version 7) for a fitting range from 25° C. to the temperature at which the fluorescence signal was highest plus 3-5° C. The Tm was determined to be the temperature at the midpoint between the highest and lowest fluorescent signals on the curve. Results of the assay for compounds 1.18, 1.21 and 1.25 are in the following table and FIG. 1.

[3] = Solubility remark in amyloid disaggregation assay; assay type: physicochemical; settings: assay solution, 5% DMSO
Description: The procedure used to evaluate disassembly of amyloids in ex vivo cataractous solutions was adapted from Chemerovski-Glikman et al., Scientific Reports 8, Article number: 9341 (2018). Nuclear and cortical lens tissue from human donors (92F, 96M) was homogenized in PBS with protease inhibitor for 60 seconds on ice. The protein concentration of the lysate was measured by Bicinchoninic Acid Assay (Pierce BCA Protein Assay Kit, ThermoFisher), and then the lysate was diluted to a total protein concentration of 0.075 mg/mL. Thioflavin T dye (Sigma-Aldrich) was added to a final concentration of 1 μM. […] After incubation with orbital shaking at 37° C., the fluorescence was read every two hours for 94 hours at an excitation wavelength of 440 nm and emission wavelength of 485 nm. Results of the assay for compounds 1.18, 1.21, 1.25 or control are in FIG. 3.

[4] = Plasma stability (rabbit); assay type: in vitro ADME; settings: 37° C., read-out: Plasma stability (rabbit) t ½
Description: as §1

[5] = in water; cited from earlier work
[6] = PBS pH 5, 37° C., read-out: Chem stability (t ½ @ pH = 5)
[7] = PBS pH 7, 37° C., read-out: Chem stability (t ½ @ pH = 7)

Compound	half-life at 1 µM [1, 6]	half-life at 1 µM [1, 7]	half-life at 0.1 µM (Plasma stability (human))	Δ Tm (° C.) Mean (n = 2) [2]	solubility (in words) [3]	half-life at 0.1 µM [4]	aqueous solubility [5]
C[C@H](CCCC(C)(C)O)[C@H]1CC[C@H]2[C@@H]3CC=C4C[C@@H](OC(=O)CCC(=O)O)CC[C@]4(C)[C@H]3CC[C@]12C [Compound 1.18]	> 8.33 h	> 8.33 h	> 8.33 h	−5.7 °C	limited solubility	> 8.33 h	–
C[C@H](CCCC(C)(C)O)[C@H]1CC[C@H]2[C@@H]3CC=C4C[C@@H](OC(=O)CC[C@H](N)C(=O)O)CC[C@]4(C)[C@H]3CC[C@]12C [Compound 1.21]	–	–	–	−1.7 °C	–	–	–
C[C@H](CCCC(C)(C)O)[C@H]1CC[C@H]2[C@@H]3CC=C4C[C@@H](OC(=O)OCC[N+](C)(C)C)CC[C@]4(C)[C@H]3CC[C@]12C.[I-] [Compound 1.25]	> 8.33 h	> 8.33 h	> 8.33 h	−1.8 °C	–	> 8.33 h	–
CC(C)CCC[C@@H](C)[C@H]1CC[C@H]2[C@@H]3CC=C4C[C@@H](O)CC[C@]4(C)[C@H]3CC[C@]12C [cholesterol]	–	–	–	–	–	–	less than 0.5 mg/100 mL
